Measurements from publication PMC8343220, “The selectivity of α‐adrenoceptor agonists for the human α1A, α1B, and α1D‐adrenoceptors” (Pharmacology Research & Perspectives, 2021).
Where two headings read alike, the source gives them in different places.

Tests used:
human α1A‐adrenoceptor [1] = molecular target: T1, human α1A‐adrenoceptor (Homo sapiens, UniProt P35348); experiment: ^3H‐prazosin whole‐cell radioligand binding, CHO‐α1A cells
T1 construct: expressed in transfected cells; host or cells: CHO-K1
T1 sequence (P35348 1-466): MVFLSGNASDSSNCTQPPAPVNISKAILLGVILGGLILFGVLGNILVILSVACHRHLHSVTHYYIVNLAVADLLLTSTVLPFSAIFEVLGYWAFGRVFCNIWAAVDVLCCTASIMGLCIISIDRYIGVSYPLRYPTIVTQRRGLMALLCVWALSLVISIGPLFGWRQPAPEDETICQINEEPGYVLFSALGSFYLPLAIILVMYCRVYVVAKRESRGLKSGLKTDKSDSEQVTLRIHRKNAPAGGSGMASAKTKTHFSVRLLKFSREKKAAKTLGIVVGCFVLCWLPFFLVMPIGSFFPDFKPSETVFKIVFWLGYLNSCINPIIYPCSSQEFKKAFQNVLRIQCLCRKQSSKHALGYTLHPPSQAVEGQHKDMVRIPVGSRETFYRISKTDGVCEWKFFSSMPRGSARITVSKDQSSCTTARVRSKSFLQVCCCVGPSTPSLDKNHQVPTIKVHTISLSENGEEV

[2] = molecular target: T2, human α1D‐adrenoceptor (full length) (Homo sapiens, UniProt P25100); experiment: ERK1/2‐phosphorylation (Surefire Alphascreen), CHO‐α1D cells; format: cell-based
T2 construct: human α1D‐adrenoceptor (full length) were used; expressed in transfected cells; host or cells: CHO-K1
T2 sequence (P25100 1-572): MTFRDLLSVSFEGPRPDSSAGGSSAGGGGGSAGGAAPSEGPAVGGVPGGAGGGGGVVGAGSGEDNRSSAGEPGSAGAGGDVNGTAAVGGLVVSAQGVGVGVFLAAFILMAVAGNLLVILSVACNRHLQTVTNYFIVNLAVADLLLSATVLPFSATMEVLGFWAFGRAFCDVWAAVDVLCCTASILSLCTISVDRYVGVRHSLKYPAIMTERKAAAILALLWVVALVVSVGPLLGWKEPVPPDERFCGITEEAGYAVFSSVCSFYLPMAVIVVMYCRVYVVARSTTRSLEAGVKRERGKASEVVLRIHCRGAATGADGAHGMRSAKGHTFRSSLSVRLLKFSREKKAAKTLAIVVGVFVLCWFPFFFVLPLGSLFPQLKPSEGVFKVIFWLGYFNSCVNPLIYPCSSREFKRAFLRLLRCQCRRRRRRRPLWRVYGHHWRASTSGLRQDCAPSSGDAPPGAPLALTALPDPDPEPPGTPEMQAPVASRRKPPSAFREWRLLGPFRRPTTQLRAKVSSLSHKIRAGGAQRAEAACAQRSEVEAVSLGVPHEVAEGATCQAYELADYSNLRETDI

human α1B‐adrenoceptor [3] = molecular target: T3, human α1B‐adrenoceptor (Homo sapiens, UniProt P35368); experiment: ^3H‐prazosin whole‐cell radioligand binding, CHO‐α1B cells
T3 construct: expressed in transfected cells; host or cells: CHO-K1
T3 sequence (P35368 1-520): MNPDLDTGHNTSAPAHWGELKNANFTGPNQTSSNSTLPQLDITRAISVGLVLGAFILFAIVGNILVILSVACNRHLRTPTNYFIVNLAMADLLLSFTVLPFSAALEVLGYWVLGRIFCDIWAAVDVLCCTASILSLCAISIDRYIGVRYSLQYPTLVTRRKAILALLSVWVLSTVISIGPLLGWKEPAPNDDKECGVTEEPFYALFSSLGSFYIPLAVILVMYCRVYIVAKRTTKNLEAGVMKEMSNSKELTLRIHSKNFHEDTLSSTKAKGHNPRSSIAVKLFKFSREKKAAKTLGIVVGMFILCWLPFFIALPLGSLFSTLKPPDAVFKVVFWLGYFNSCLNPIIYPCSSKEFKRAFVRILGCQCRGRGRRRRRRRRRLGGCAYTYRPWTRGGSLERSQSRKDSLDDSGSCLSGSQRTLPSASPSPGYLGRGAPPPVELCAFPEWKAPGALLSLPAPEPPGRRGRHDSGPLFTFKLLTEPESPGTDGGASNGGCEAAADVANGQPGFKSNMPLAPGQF

[4] = test system: parental CHO cell line without any transfected receptors; experiment: ^3H‐cAMP accumulation, parent CHO cells without transfected receptors; format: cell-based, Chinese hamster
[5] = molecular target: T2, human α1D‐adrenoceptor (full length); experiment: ^3H‐prazosin whole‐cell radioligand binding, CHO‐α1D cells
human α1A‐adrenoceptor [6] = molecular target: T1, human α1A‐adrenoceptor; experiment: ^3H‐cAMP accumulation in the presence of 10 μM forskolin, CHO‐α1A cells; format: cell-based; conditions: for cAMP accumulation (in presence of forskolin) Fold increase: fold increase of the forskolin response
[7] = test system: parental CHO cell line without any transfected receptors; experiment: ERK1/2‐phosphorylation, parent CHO cells without transfected receptors; format: cell-based, Chinese hamster
[8] = test system: parental CHO cell line without any transfected receptors; experiment: Intracellular calcium mobilization, parent CHO cells without transfected receptors; format: cell-based, Chinese hamster; conditions: for Emax: Cricetulus griseus, CHO, read-out: Intracellular calcium release % ionomycin
[9] = molecular target: T2, human α1D‐adrenoceptor (full length); experiment: Intracellular free calcium mobilization, CHO‐α1D cells; format: cell-based
human α1A‐adrenoceptor [10] = molecular target: T1, human α1A‐adrenoceptor; experiment: Intracellular free calcium mobilization, CHO‐α1A cells; format: cell-based
human α1A‐adrenoceptor [11] = molecular target: T1, human α1A‐adrenoceptor; experiment: ^3H‐cAMP accumulation, CHO‐α1A cells; format: cell-based; conditions: for cAMP accumulation % forskolin: % of 10 µM forskolin response
[12] = test system: parental CHO cell line without any transfected receptors; experiment: Forskolin‐stimulated cAMP accumulation, parent CHO cells without transfected receptors; format: cell-based, Chinese hamster
human α1A‐adrenoceptor [13] = molecular target: T1, human α1A‐adrenoceptor; experiment: ERK1/2‐phosphorylation (Surefire Alphascreen), CHO‐α1A cells; format: cell-based
[14] = molecular target: T2, human α1D‐adrenoceptor (full length); experiment: ^3H‐cAMP accumulation, CHO‐α1D cells; format: cell-based; conditions: cAMP accumulation without forskolin
[15] = molecular target: T2, human α1D‐adrenoceptor (full length); experiment: ^3H‐cAMP accumulation in the presence of 10 μM forskolin, CHO‐α1D cells; format: cell-based; conditions: CHO‐α1D cells; for cAMP (in presence of forskolin) Log EC50: log values given negative
human α1B‐adrenoceptor [16] = molecular target: T3, human α1B‐adrenoceptor; experiment: ^3H‐cAMP accumulation, CHO‐α1B cells; format: cell-based
human α1B‐adrenoceptor [17] = molecular target: T3, human α1B‐adrenoceptor; experiment: Intracellular free calcium mobilization, CHO‐α1B cells; format: cell-based
human α1B‐adrenoceptor [18] = molecular target: T3, human α1B‐adrenoceptor; experiment: ERK1/2‐phosphorylation (Surefire Alphascreen), CHO‐α1B cells; format: cell-based
human α1B‐adrenoceptor [19] = molecular target: T3, human α1B‐adrenoceptor; experiment: ^3H‐cAMP accumulation in the presence of 10 μM forskolin, CHO‐α1B cells; format: cell-based
[20] = Intracellular calcium release Log EC50
[21] = ERK1/2‐phosphorylation Log EC50

SMILES | Affinity selectivity ratio α1A vs α1B (human α1A‐adrenoceptor [1]) [fold] | Affinity selectivity ratio α1A vs α1D (human α1A‐adrenoceptor [1]) [fold] | Kd (human α1A‐adrenoceptor [1]) [µM] | cAMP accumulation % forskolin [4] | Affinity selectivity ratio α1B vs α1D [5] [fold] | Kd [5] [µM] | EC50 (human α1A‐adrenoceptor [6]) [nM] | cAMP accumulation (in presence of forskolin) Fold increase (human α1A‐adrenoceptor [6]; CHO‐α1A cells) [fold] | ERK1/2-phosphorylation % PDBu [7] | Emax [8] [%] | EC50 (human α1A‐adrenoceptor [10]) [nM] | Intracellular calcium release % ionomycin (human α1A‐adrenoceptor [10]) [%] | Log efficacy ratio KD /EC50 (human α1A‐adrenoceptor [10]) | EC50 (human α1A‐adrenoceptor [11]) [nM] | cAMP accumulation % forskolin (human α1A‐adrenoceptor [11]; CHO‐α1A cells) [%] | cAMP accumulation (in presence of forskolin) % forskolin-stim cAMP [12] | cAMP accumulation (in presence of forskolin) Log EC50 [12] | EC50 (human α1A‐adrenoceptor [13]) [nM] | ERK1/2‐phosphorylation % PDBu (human α1A‐adrenoceptor [13]) [%] | EC50 [2] [µM] | further results
CN[C@@H](C)[C@H](O)c1ccccc1 [Ephedrine] | >11.7 | 3.2 | 85.1 | No response | >3.7 | 269 | 70800 | 1.70 ± 0.10 | No response | 5.3 ± 1.6 | 3160 | 43.1 ± 1.6 | 1.43 | 117000 | 7.8 ± 1.3 | No response | No response | 7590 | 72.7 ± 6.5 | – | ERK1/2‐phosphorylation % PDBu at 100 µM [2]: 3.3 ± 2.1%; IC50 (human α1B‐adrenoceptor [3]): > 1 mM; ERK1/2-phosphorylation Log EC50 [7]: No response; Intracellular calcium release % Ionomycin at 100 µM [9]: 2.6 ± 1.3%
C=CCc1ccccc1OC(C)C1=NCCN1 (centres unmarked) [Allyphenyline] | 47.9 | 8.7 | 0.162 | No response | 5.5 | 1.41 | 7.94 | 2.38 ± 0.08 | – | 5.9 ± 1 | 2.95 | 58.6 ± 3.0 | 1.74 | 89.1 | 82.4 ± 5.5 | No response | No response | 1.58 | 79.3 ± 3.5 | 6.92 | ERK1/2‐phosphorylation % PDBu [2]: 29.1 ± 4.7%; cAMP Log EC50 [14]: No response; Kd (human α1B‐adrenoceptor [3]): 7.76 µM; Emax at 100 µM ([7]; Cricetulus griseus, CHO, read-out: ERK1/2-phosphorylation % PDBu at 100μM): 12.7 ± 3.1%; cAMP (in presence of forskolin) Fold increase ([15]; fold increase of the forskolin response): No response; cAMP (in presence of forskolin) Log EC50 [15]: No response; EC50 (human α1B‐adrenoceptor [16]): 174 nM; cAMP accumulation % forskolin (human α1B‐adrenoceptor [16]; CHO‐α1B cells, % forskolin maximum response): 5.5 ± 0.9%; EC50 (human α1B‐adrenoceptor [17]): 79.4 nM; Intracellular calcium release % ionomycin (human α1B‐adrenoceptor [17]): 39.9 ± 1.9%; Log efficacy ratio KD /EC50 (human α1B‐adrenoceptor [17]): 1.99; EC50 (human α1B‐adrenoceptor [18]): 282 nM; ERK1/2‐phosphorylation % PDBu (human α1B‐adrenoceptor [18]): 65.3 ± 3.0%; EC50 [9]: 316 nM; Intracellular calcium release % ionomycin [9]: 12.3 ± 1.4%; Log efficacy ratio KD /EC50 [9]: 0.65; EC50 (human α1B‐adrenoceptor [19]): 51.3 nM; cAMP accumulation (in presence of forskolin) Fold increase (human α1B‐adrenoceptor [19]; CHO‐α1B cells, fold increase of the forskolin response): 1.87 ± 0.07 fold
CC(Cc1ccc(O)cc1)NCC(O)c1cc(O)cc(O)c1 (centres unmarked) [Fenoterol] | – | – | – | No response | – | – | – | – | No response | – | – | – | – | – | – | No response | – | – | – | 3.98 | Kd (human α1A‐adrenoceptor [1]; Log KD α1A, ^3H‐prazosin whole cell binding): 5.13 µM; cAMP Log EC50 [14]: No response; Kd (human α1B‐adrenoceptor [3]; Log KD α1B, ^3H‐prazosin whole cell binding): 123 µM; Kd (human α1B‐adrenoceptor [3]; Log KD, ^3H‐prazosin binding): 123 µM; Kd ([5]; 3H‐prazosin binding Log KD): 44.7 µM; Kd ([5]; Log KD α1D, ^3H‐prazosin whole cell binding): 44.7 µM; cAMP accumulation (in presence of forskolin) Log EC50 (human α1A‐adrenoceptor [6]; CHO‐α1A cells, 10 μM forskolin): No response; Intracellular calcium release % ionomycin [8]: No response; cAMP (in presence of forskolin) Log EC50 [15]: No response; EC50 (human α1B‐adrenoceptor [17]; [20]): 537 nM; EC50 (human α1B‐adrenoceptor [18]; [21]): 2750 nM; EC50 (human α1A‐adrenoceptor [10]; [20]): 309 nM; cAMP accumulation Log EC50 (human α1A‐adrenoceptor [11]; CHO‐α1A cells, 5 h): No response; EC50 (human α1A‐adrenoceptor [13]; [21]): 2040 nM
CCC1(c2cnc[nH]2)Cc2ccccc2C1 [Atipamezole] | – | – | – | No response | – | – | – | 2.00 ± 0.10 | – | – | – | 44.5 ± 2.6 | 0.62 | – | 14.5 ± 2.6 | No response | No response | – | 87.1 ± 5.0 | – | ERK1/2‐phosphorylation % PDBu at 10 µM [2]: 5.3 ± 4.6%; EC50 (human α1A‐adrenoceptor [6]; CHO‐α1A cells, 10 μM forskolin, read-out: cAMP accumulation (in presence of forskolin) Log EC50 (converted)): 479 nM; ERK1/2-phosphorylation % PDBu at 10μM [7]: 3.1 ± 1.9%; Intracellular calcium release % ionomycin [8]: No response; Intracellular calcium release % Ionomycin at 100 µM (human α1B‐adrenoceptor [17]): 18.1 ± 4.8%; ERK1/2‐phosphorylation % PDBu (human α1B‐adrenoceptor [18]): No response; ERK1/2‐phosphorylation Log EC50 (human α1B‐adrenoceptor [18]; CHO‐α1B cells, for bi‐phasic responses the initial stimulatory part): No response; Intracellular calcium release % ionomycin [9]: No response; Intracellular calcium release Log EC50 ([9]; CHO‐α1D cells, log values given negative): No response; EC50 (human α1A‐adrenoceptor [10]; CHO‐α1A cells, given as log EC50 (negative), read-out: Intracellular calcium release Log EC50 (converted)): 245 nM; EC50 (human α1A‐adrenoceptor [11]; CHO‐α1A cells, 5 h, read-out: cAMP accumulation Log EC50 (converted)): 1170 nM; EC50 (human α1A‐adrenoceptor [13]; CHO‐α1A cells, 2–4 min, ^a bi‐phasic: initial stimulatory part, ^b also active in parent CHO cells, read-out: ERK1/2‐phosphorylation Log EC50 (converted)): 100 nM
